Assay results as given in patent US11926596B2, “Inhibitors of Rho associated coiled-coil containing protein kinase” (KADMON CORPORATION, LLC, priority 2017, dated 2024).

Assays:
[1] = target: T1, recombinant ROCK2 (amino acids 1-552) (Homo sapiens, UniProt O75116); experiment: Z'-lyte kinase assay, ROCK2; assay type: biochemical; details: for inhibition at 3 µM / inhibition at 1 µM / inhibition at 0.5 µM: read-out: ROCK2 % inh
T1 construct: ROCK2 (amino acids 1-552) proteins were purchased from ThermoFisher Scientific; purchased ThermoFisher Scientific
Procedure: (§1) Determination of compounds ROCK inhibitory activity in vitro (Z'lyte assay): recombinant ROCK1 (amino acids 1-535) and ROCK2 (amino acids 1-552) proteins were purchased from ThermoFisher Scientific. Compounds activities were measured by Z′-lyte kinase kit (ThermoFisher Scientific) and IC50s were calculated.
(§2) Table 2, below, provides in vitro and cellular inhibition of ROCKs by compounds of the invention. Compounds activities were measured by Z′-lyte kinase kit (ThermoFisher Scientific). […] IC50s were calculated using the GraphPad Prism software with kinase activities data that were collected from points 9 serial dilution of compounds treatment. The ROCK inhibition in A7R5 cells and NIH3T3 (Acta2-Luc) cells was performed as described above.

[2] = test system: phospho-myosin light chains (ppMlc, Thr18/Ser19) in A7R5 cells; experiment: A7R5 in-cell ELISA, phospho-myosin light chain; assay type: cell-based, rat; details: for IC50 / inhibition at 1 µM / inhibition at 10 µM: Rattus norvegicus, A7R5 cells; for IC50: 1.5 h, 90 min, read-out: pMLC IC50 A7R5; for inhibition at 1 µM / inhibition at 10 µM: read-out: pMLC % inh A7R5; for cellular ROCK inhibition compared with Comparative Example 2: phosphorylation of the ROCK target pMLC in A7R5 cells
Procedure: Determination of compounds ROCK inhibitory activity in A7R5 cells: rat aortic smooth muscle cell line A7R5 cells were maintained and treated in DMEM medium with 10% of fetal bovine serum. Cells were seeded with density of 5,000 cells/well in 96-well plates for 24 hours and subsequently treated 90 min with testing compounds. Cells were then fixed and processed according to the In-Cell ELISA Colorimetric Detection Kit manual (Thermo Scientific). Cellular phospho-myosin light chains (ppMlc, Thr18/Ser19) levels were determined after treatments of DMSO control or test compounds using the In-Cell ELISA kit. The percent inhibition rate was calculated by applying the data obtained with 1 μM (or 10 μM) compound treatment to the formula, [1-(compound/DMSO)]×100%. ppMlc data obtained with 9 points 2-fold serial dilution of compounds were applied to the nonlinear regression curve fit function of the GraphPad Prism software to calculate the In cell IC50s.
A7R5 cells were treated with 9 points 2 fold serial dilution of compounds and ppMlc (T18/S19) levels were determined in order to calculate cellular IC50s of the compounds.
Two steps of measurements were adopted for pMLC/A7R5 IC50. Percent inhibition rates were calculated with a single dose (1 μM or 10 μM) compounds treatment to screen for active compounds and then cellular IC50s were measured only in compounds that have over 50% of inhibition rates.

[3] = target: T2, recombinant ROCK1 (amino acids 1-535) (Homo sapiens, UniProt Q13464); experiment: Z'-lyte kinase assay, ROCK1; assay type: biochemical; details: for inhibition at 3 µM / inhibition at 0.5 µM: read-out: ROCK1 % inh
T2 construct: recombinant ROCK1 (amino acids 1-535) and ROCK2; purchased ThermoFisher Scientific
Procedure: as §1, §2

T2 sequence (Q13464 1-535): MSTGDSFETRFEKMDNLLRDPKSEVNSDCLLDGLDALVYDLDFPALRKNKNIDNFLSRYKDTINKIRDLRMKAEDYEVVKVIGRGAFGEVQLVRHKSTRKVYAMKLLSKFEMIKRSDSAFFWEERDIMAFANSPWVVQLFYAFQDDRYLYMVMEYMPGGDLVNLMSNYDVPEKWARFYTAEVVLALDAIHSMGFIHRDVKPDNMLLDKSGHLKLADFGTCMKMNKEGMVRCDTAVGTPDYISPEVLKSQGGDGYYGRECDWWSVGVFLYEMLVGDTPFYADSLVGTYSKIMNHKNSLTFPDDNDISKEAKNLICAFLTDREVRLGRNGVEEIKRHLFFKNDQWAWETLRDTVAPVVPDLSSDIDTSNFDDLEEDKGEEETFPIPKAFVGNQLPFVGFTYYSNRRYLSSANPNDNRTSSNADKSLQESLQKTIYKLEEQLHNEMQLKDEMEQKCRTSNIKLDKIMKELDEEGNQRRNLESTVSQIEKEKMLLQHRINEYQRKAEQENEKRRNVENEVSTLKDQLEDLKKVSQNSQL
T1 sequence (O75116 1-552): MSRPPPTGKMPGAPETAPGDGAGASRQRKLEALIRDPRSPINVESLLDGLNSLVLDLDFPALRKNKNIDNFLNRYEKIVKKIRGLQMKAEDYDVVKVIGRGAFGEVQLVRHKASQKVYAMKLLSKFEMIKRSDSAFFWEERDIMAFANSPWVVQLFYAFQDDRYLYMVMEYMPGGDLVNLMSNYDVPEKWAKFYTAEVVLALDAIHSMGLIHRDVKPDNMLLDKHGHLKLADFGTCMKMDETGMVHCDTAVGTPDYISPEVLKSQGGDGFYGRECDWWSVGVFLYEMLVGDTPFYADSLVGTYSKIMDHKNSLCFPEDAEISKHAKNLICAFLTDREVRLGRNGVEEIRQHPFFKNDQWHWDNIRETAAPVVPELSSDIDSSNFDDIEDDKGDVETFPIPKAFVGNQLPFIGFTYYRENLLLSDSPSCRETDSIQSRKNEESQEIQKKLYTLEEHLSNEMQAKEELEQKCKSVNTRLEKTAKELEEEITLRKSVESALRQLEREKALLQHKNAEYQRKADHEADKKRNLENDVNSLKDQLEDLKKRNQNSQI

Structure (SMILES)	inhibition at 3 µM [1]	IC50 [2]	inhibition at 3 µM [3]	IC50 [1]	also measured
NC(C(=O)Nc1ccc2[nH]ncc2c1)c1ccc(Cl)cc1 (stereo not drawn) [Comp2, reference compound]	97.5%	4.41 µM	92.2%		
NC(C(=O)Nc1ccc2[nH]ncc2c1)c1ccccc1 (stereo not drawn) [Comp3, reference compound]	97.4%	10.9 µM	91.5%		
COc1ccc(C(N)C(=O)Nc2ccc3[nH]ncc3c2)cc1 (stereo not drawn) [Comp4, reference compound]		6.16 µM	95.8%		inhibition at 1 µM [1]: 96.5%
Cc1ccc(C(N)C(=O)Nc2ccc3[nH]ncc3c2)cc1 (stereo not drawn) [Comp5, reference compound]			99%	0.033 µM	inhibition at 1 µM [1]: 96.2%; IC50 [3]: 1.31 µM
NC(C(=O)Nc1ccc2[nH]ncc2c1)c1cccc(F)c1 (stereo not drawn) [Comp6, reference compound]	98.8%	6.99 µM	99%	0.0418 µM	IC50 [3]: 0.0413 µM
NC(C(=O)Nc1ccc2[nH]ncc2c1)c1ccccc1F (stereo not drawn) [Comp7, reference compound]	100%	18.4 µM	100%	0.303 µM	IC50 [3]: 0.166 µM
O=C(Nc1ccc2[nH]ncc2c1)C1CNc2ccccc2C1 (stereo not drawn) [Example 3, N-(1H-indazol-5-yl)-1,2,3,4-tetrahydroquinoline-3-carboxamide]	0%		0%		inhibition at 1 µM [2]: 25%
O=C(Nc1ccc2[nH]ncc2c1)C1Cc2ccccc2CN1 (stereo not drawn) [Example 4, N-(1H-indazol-5-yl)-1,2,3,4-tetrahydroisoquinoline-3-carboxamide]				> 1 µM	inhibition at 10 µM [2]: 18%; IC50 [3]: > 1 µM
O=C(Nc1ccc2[nH]ncc2c1)C1NCCc2ccccc21 (stereo not drawn) [Example 5, N-(1H-indazol-5-yl)-1,2,3,4-tetrahydroisoquinoline-1-carboxamide]		35.8 µM		0.077 µM	IC50 [3]: 0.038 µM
O=C(Nc1ccc2[nH]ncc2c1)C1NCc2ccccc21 (stereo not drawn) [Example 6, N-(1H-indazol-5-yl)isoindoline-1-carboxamide]				> 1 µM	inhibition at 10 µM [2]: 1%; IC50 [3]: 0.421 µM
CNC(C(=O)N(CCN(C)C)c1ccc2[nH]ncc2c1)c1cccc(OC)c1 (stereo not drawn) [Example 7, N-(2-(dimethylamino)ethyl)-N-(1H-indazol-5-yl)-2-(3-methoxyphenyl)-2-(methylamino)acetamide]				1.63 µM	inhibition at 1 µM [1]: 11%; inhibition at 10 µM [2]: 2%; inhibition at 0.5 µM [3]: 16%
O=C(Nc1ccc2[nH]ncc2c1)C1CNCc2ccccc21 (stereo not drawn) [Example 8, N-(1H-indazol-5-yl)-1,2,3,4-tetrahydroisoquinoline-4-carboxamide]		2.62 µM			inhibition at 1 µM [1]: 76.7%
CC1NC(C(=O)Nc2ccc3[nH]ncc3c2)c2ccccc21 (stereo not drawn) [Example 9, N-(1H-indazol-5-yl)-3-methylisoindoline-1-carboxamide]					inhibition at 1 µM [2]: 4%
O=C(Nc1ccc2[nH]ncc2c1)C1CCCN1 (stereo not drawn) [Example 10, N-(1H-indazol-5-yl)pyrrolidine-2-carboxamide]					inhibition at 1 µM [2]: 1%
O=C(Nc1ccc2[nH]ncc2c1)C1CCNC1 (stereo not drawn) [Example 11, N-(1H-indazol-5-yl)pyrrolidine-3-carboxamide]					inhibition at 1 µM [2]: 1%
O=C(Nc1ccc2[nH]ncc2c1)[C@@H]1CC[C@H](c2ccccc2)N1 [Example 12, (2S,5R)-N-(1H-indazol-5-yl)-5-phenylpyrrolidine-2-carboxamide]					inhibition at 1 µM [2]: 1%
O=C(Nc1ccc2[nH]ncc2c1)C1CCCCN1 (stereo not drawn) [Example 13, N-(1H-indazol-5-yl)piperidine-2-carboxamide]					inhibition at 1 µM [2]: 11%
CNC(C(=O)Nc1ccc2[nH]ncc2c1)c1ccc(-c2ccccc2F)cc1 (stereo not drawn) [Example 33, 2-(2′-fluoro-[1,1′-biphenyl]-4-yl)-N-(1H-indazol-5-yl)-2-(methylamino)acetamide]					inhibition at 1 µM [1]: 66.5%; inhibition at 10 µM [2]: 48%
CNC(C(=O)Nc1ccc2[nH]ncc2c1)c1ccccc1OC (stereo not drawn) [Example 35, N-(1H-indazol-5-yl)-2-(2-methoxyphenyl)-2-(methylamino)acetamide]					inhibition at 1 µM [1]: 71%; inhibition at 1 µM [2]: 16%
CNC(C(=O)Nc1ccc2[nH]ncc2c1)c1ccc(-c2ccc(OC)cc2)cc1 (stereo not drawn) [Example 45, N-(1H-indazol-5-yl)-2-(4′-methoxy-[1,1′-biphenyl]-4-yl)-2-(methylamino)acetamide]					inhibition at 1 µM [1]: 22%; inhibition at 10 µM [2]: 4%
COCCNC(C(=O)Nc1ccc2[nH]ncc2c1)c1cccc(OC)c1 (stereo not drawn) [Example 46, N-(1H-indazol-5-yl)-2-((2-methoxyethyl)amino)-2-(3-methoxyphenyl)acetamide]					inhibition at 1 µM [1]: 67%; inhibition at 10 µM [2]: 27%

Second part, led by results:

inhibition at 3 µM [1]	IC50 [2]	inhibition at 3 µM [3]	IC50 [1]	Structure (SMILES)	also measured
96.3%	0.556 µM	93.3%	0.248 µM	CCNC(C(=O)Nc1ccc2[nH]ncc2c1)c1ccc(Cl)cc1 (stereo not drawn) [Example 17, 2-(4-chlorophenyl)-2-(ethylamino)-N-(1H-indazol-5-yl)acetamide]	cellular ROCK inhibition compared with Comparative Example 2 [2]: enhanced; IC50 [3]: < 0.01 µM
94.1%	2.51 µM	89.6%		CC(C)NC(C(=O)Nc1ccc2[nH]ncc2c1)c1ccc(Cl)cc1 (stereo not drawn) [Example 18, 2-(4-chlorophenyl)-N-(1H-indazol-5-yl)-2-(isopropylamino)acetamide]	cellular ROCK inhibition compared with Comparative Example 2 [2]: enhanced
96.6%	1.6 µM	21.4%	0.16 µM	CNC(C(=O)Nc1ccc2[nH]ncc2c1)c1ccc(F)cc1 (stereo not drawn) [Example 19, 2-(4-fluorophenyl)-N-(1H-indazol-5-yl)-2-(methylamino)acetamide]	IC50 [3]: 0.173 µM
94.6%	2.51 µM	18.4%	0.152 µM	CC(C)NC(C(=O)Nc1ccc2[nH]ncc2c1)c1ccc(F)cc1 (stereo not drawn) [Example 20, 2-(4-fluorophenyl)-N-(1H-indazol-5-yl)-2-(isopropylamino)acetamide]	IC50 [3]: 0.561 µM
95.8%	2.39 µM	91.5%		CCNC(C(=O)Nc1ccc2[nH]ncc2c1)c1ccccc1 (stereo not drawn) [Example 21, 2-(ethylamino)-N-(1H-indazol-5-yl)-2-phenylacetamide]	
96.7%	1.8 µM	94.3%		CC(C)NC(C(=O)Nc1ccc2[nH]ncc2c1)c1ccccc1 (stereo not drawn) [Example 22, N-(1H-indazol-5-yl)-2-(isopropylamino)-2-phenylacetamide]	
			0.438 µM	COc1cccc(C(NCCN(C)C)C(=O)Nc2ccc3[nH]ncc3c2)c1 (stereo not drawn) [Example 34, 2-((2-(dimethylamino)ethyl)amino)-N-(1H-indazol-5-yl)-2-(3-methoxyphenyl)acetamide]	inhibition at 10 µM [2]: 49%
			0.073 µM	CCOc1ccc(C(NC)C(=O)Nc2ccc3[nH]ncc3c2)cc1 (stereo not drawn) [Example 43, 2-(4-ethoxyphenyl)-N-(1H-indazol-5-yl)-2-(methylamino)acetamide]	inhibition at 1 µM [1]: 98%; inhibition at 10 µM [2]: 4%
			0.455 µM	CNC(C(=O)Nc1ccc2[nH]ncc2c1)c1ccc(OC(C)C)cc1 (stereo not drawn) [Example 44, N-(1H-indazol-5-yl)-2-(4-isopropoxyphenyl)-2-(methylamino)acetamide]	inhibition at 10 µM [2]: 42%
			0.071 µM	CNC(C(=O)Nc1ccc2[nH]ncc2c1)c1ccc(F)c(OC)c1 (stereo not drawn) [Example 48, 2-(4-fluoro-3-methoxyphenyl)-N-(1H-indazol-5-yl)-2-(methylamino)acetamide]	inhibition at 0.5 µM [1]: 76%; inhibition at 0.5 µM [3]: 87%
			0.087 µM	CCNC(C(=O)Nc1ccc2[nH]ncc2c1)c1cccc(C)c1 (stereo not drawn) [Example 49, 2-(ethylamino)-N-(1H-indazol-5-yl)-2-(m-tolyl)acetamide]	inhibition at 0.5 µM [1]: 76%; inhibition at 0.5 µM [3]: 88%
			0.021 µM	CNC(C(=O)Nc1ccc2[nH]ncc2c1)c1cccc(OC(F)(F)F)c1 (stereo not drawn) [Example 50, N-(1H-indazol-5-yl)-2-(methylamino)-2-(3-(trifluoromethoxy)-phenyl)acetamide]	inhibition at 0.5 µM [1]: 93%; inhibition at 0.5 µM [3]: 93%
